Patent US20240002379A1, “ASYMMETRIC CONJUGATE COMPOUNDS” (Pheon Therapeutics Ltd., priority 2016, published 2024)

Columns and labels:
[1] = system: SW620 cell line (gastric); assay: MTT cytotoxicity assay, SW620; format: cell-based; conditions: Homo sapiens, SW-620; MTT assay, 72 hour incubation; read-out: Cytotoxicity SW620 (72 hours)
Procedure, shortened: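 Cells seeded at 1800/well in RPMI1640 + 10% FBS, adhered overnight, then exposed to compound 72 h at 37° C. Survival by MTT (500 μg/ml, 4 h), formazan in DMSO read at 540 nm, blank-corrected versus untreated wells; IC50 read from concentration–survival plot.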

[2] = system: fluorescently labelled DNA duplex 5′-[…]-3′; assay: FRET DNA melting, FIG. 17 top sequence; format: binding; conditions: suggests interstrand cross-link formation
Source text: Further FRET DNA melting studies were undertaken on a number of molecules using three fluorescently labelled sequences. The sequences (FIG. 17) were designed to provide additional evidence that the series can form inter- and intrastrand cross-links. Inosines were inserted in place of traditional DNA bases in some cases to limit the number of binding sites available for the compounds to interact with. The short duplexes used in this FRET study are relatively unstable in the duplex form with a melting temperature below 30° C. so that, in the absence of ligand, a large part of the melting occurs below the starting temperature of the experiment. […] Increasing concentrations of 13 cause a greater amount of the melting transition to appear at the higher temperature (i.e. a greater number of the DNA molecules are cross-linked). […]
The reaction mixture was comprised of 4 μL of 250 mM phosphate buffer (final concentration of 50 mM), 4 μL flourophor and 4 μL quencher molecule of the appropriate oligonucleotide for a final concentration of 0.2 PM, 4 μL 5 M sodium chloride (final concentration of 1 M NaCl), and 4 μL of distilled H2O. […] This mixture was analysed without prior annealing.
Fluorescence melting profiles were measured using a Roche LightCycler using a total reaction volume of 20 μL. […] Annealing steps and melting steps were all recorded and changes in fluorescence were measured at 520 nm. […]

[3] = system: three fluorescently labelled DNA sequences shown in FIG. 17; assay: FRET DNA melting, the three DNA sequences shown in FIG. 17 together; format: binding; conditions: different concentrations, all three sequences, vs control DNA
Source text: Further FRET DNA melting studies were undertaken on a number of molecules using three fluorescently labelled sequences. The sequences (FIG. 17) were designed to provide additional evidence that the series can form inter- and intrastrand cross-links. Inosines were inserted in place of traditional DNA bases in some cases to limit the number of binding sites available for the compounds to interact with. The short duplexes used in this FRET study are relatively unstable in the duplex form with a melting temperature below 30° C. so that, in the absence of ligand, a large part of the melting occurs below the starting temperature of the experiment. […] Increasing concentrations of 13 cause a greater amount of the melting transition to appear at the higher temperature (i.e. a greater number of the DNA molecules are cross-linked). A greater effect for 5′-AIIAGAITTTI′-3′ can be observed at lower concentrations of 13.
Oligonucleotides were obtained from ATDbio (Southampton, UK) in lyophilised form. They were labelled with a fluorophore molecule (F=fluorescein) at the 5′-end and a quencher molecule (Q=dabcyl) at the 3′-end of the complementary strand. Each oligonucleotide was dissolved in distilled H2O to form stock solutions of 100 PM. Working solutions of 5 μM were prepared by diluting the stock solution with distilled H2O.
The following buffers were used: 250 mM phosphate buffer pH 7.4 (consisting of sodium dihydrogen phosphate and sodium phosphate diluted in distilled H2O) and 5 M sodium chloride buffer. A11 buffers and distilled H2O were filtered through a […] filter prior to use.
For the FRET experiments a stock solutions were prepared by dissolving compound (such as compound 13) in DMSO to give a concentration of 10 mM. From this stock solution, working solutions of the desired concentration were prepared by diluting the stock solution with distilled H2O.
The reaction mixture was comprised of 4 μL of 250 mM phosphate buffer (final concentration of 50 mM), 4 μL flourophor and 4 μL quencher molecule of the appropriate oligonucleotide for a final concentration of 0.2 PM, 4 μL 5 M sodium chloride (final concentration of 1 M NaCl), and 4 μL of distilled H2O. This mixture was heated in an Eppendorf tube at 90° C. for 1 min and slowly cooled down to room temperature. This process was carried out to anneal the single strands to double-stranded DNA. Following this, 4 μL of the ligand was added in the desired concentration and the mixture incubated overnight either at room temperature or 4° C. A control sample of DNA only was prepared by mixing 4 μL 250 mM phosphate buffer (final concentration of 50 mM) with 4 μL fluorophore-labelled and 4 μL quencher-labelled oligonucleotides (of the appropriate sequence) to give a final concentration of 0.2 PM, 4 μL 5 M sodium chloride (final concentration of 1 M NaCl) and 4 μL distilled H2O. This mixture was analysed without prior annealing.
Fluorescence melting profiles were measured using a Roche LightCycler using a total reaction volume of 20 μL. Initially, the samples were denatured by heating to 95° C. at a rate of 1° C. min^−1. The samples were then maintained at 95° C. for 5 min before annealing by cooling to 25° C. at 1° C. min^−1. The samples were then held at 25° C. for a further 5 min and finally melted by heating to 95° C. at 1° C. min^−1. Annealing steps and melting steps were all recorded and changes in fluorescence were measured at 520 nm.
Tm values were obtained from the first derivates of the melting profiles using the Roche LightCycler software.

Row | SMILES | IC50 [1] | Tm value [2] | effect on melting temperature / DNA stabilisation [3]
1 | COc1cc2c(cc1OCCCC(=O)N1C[C@@H](CCl)c3c1cc(O)c1ccccc31)N=C[C@@H]1CCCCN1C2=O [Compound 13, (S)-3-(4-((S)-1-(Chloromethyl)-5-hydroxy-1,2-dihydro-3H-benzo[e]indol-3-yl)-4-oxobutoxy)-2-methoxy-7,8,9,10-tetrahydrobenzo[e]-pyrido[1,2-a][1,4]diazepin-12(6aH)-one] | 0.42 nM |  | 
2 | COc1cc2c(cc1OCc1cccc(CC(=O)N3C[C@@H](CCl)c4c3cc(O)c3ccccc43)c1)N=C[C@@H]1CCCCN1C2=O [Compound 42, (S)-3-((3-(2-((S)-1-(Chloromethyl)-5-hydroxy-1,2-dihydro-3H-benzo[e]indol-3-yl)-2-oxoethyl)benzyl)oxy)-2-methoxy-7,8,9,10-tetrahydrobenzo[e]pyrido[1,2-a][1,4]diazepin-12(6aH)-one] |  | ~80 °C | increases significantly
